Test system: tobacco hornworm (Manduca sexta) larvae
Test: Tobacco hornworm growth and developmental responses to feeding on diets containing the compounds
Format: in vivo
Conditions: for Total No. of Adults: all tests began with 15 larvae; for mean number of eggs: 4 day old females
Protocol: The compounds produced and described in Example 1 were then tested for pesticidal activity against the tobacco hornworm (Manduca sexta). The screening procedure for these tests began with the larval stage and continued through the pupal and adult stages and finally evaluated egg production. The studies thus permitted the evaluation of the effects of the compounds over several subsequent developmental stages in the total life cycle of the insect, giving estimates of acute toxicity (insecticidalor larvicidal activity) as well as prolonged or delayed effects on development (growth regulation) and reproduction (chemosterilization). The latter are of special importance in conjunction with the integrated pest management approach to insect control.
The test compounds were incorporated into the artificial diet of tobacco hornworm larvae and their subsequent growth and developmental responses were monitored using the following parameters: larval mortality including determination of LD50 values, rate of larval development and weight gain, percent pupation, pupal weight and degree of deformities, percent adult emergence and measures of reproductive capacity such as the number of developed ooctyes, fecundity and fertility. The protocol for the screening tests has been developed over a number of years by Dahlman et al., Comp. Biochem. Physiol. 51A, 33, (1975); Comp. Biochem. Physiol., 52A, 105 (1975); Ent. Exp. et Appl., 22, 123 (1977); Palumbo and D. L. Dahlman, J. Econ. Entomol. 71, 674 (1978); D. L. Dahlman, Ent. Exp. et Appl., 24, 327 (1978).
Each treatment used 15 newly ecdysed fifth-instar larvae. Death of larvae within a few hours to several days of initial exposure was considered to be acute toxicity. However, the compounds may reduce the maximum size attained by larvae and/or may retard growth so that larvae require additional time to attain their maximum size. Developmental parameters subsequent to the feeding stage also may be affected. […] Mortality may occur in the pupal stage or emerging adults may have wrinkled wings or other deformities. The number of eggs produced by treated females may be reduced and/or unfertile. Although acute toxicity is desirable in the control of any insect, the delayed effects which result in poor survival and reduced reproductive capacity are significant factors in the long-range program of pest management systems.
Continuous cultures of M. sexta are maintained according to the procedures of Yamamoto, J. Econ. Entomol., 62, p. 1427 (1969). Ingredients of the diet formulation include sugar, casein, wheat germ oil, cholesterol, salt mixture, yeast, vitamins, antioxidants and fungal inhibitors, such as ascorbic acid, sorbic acid, formaldehyde and methyl-p-benzoate. All are incorporated into a liquid agar base which, when poured into holding pans, solidifies to form an adequate substrate upon which the insect larvae feed. Nearly any test material can be uniformly incorporated into such a diet. Thus, exposure to experimental compounds can be evaluated during all or any part of the larval stage. In addition, chronic or long-term effects in subsequent life stages can also be monitored.
The results from these studies, in which the 1,2-diphenylaziridines of Example 1 were incorporated singly into the diet of M. sexta at a concentration of 5 mM are presented in the following Table I.

Row | SMILES | % Adult Emergence (5 mM in diet) [%] | % Malformed Adults (5 mM in diet) [%] | % Pupation (5 mM in diet) [%] | Days to Max Wt (5 mM in diet) | Max Larval Wt (5 mM in diet) | Mean No. of Eggs (5 mM in diet) | No. of female Adults (5 mM in diet) | reduction in the maximum weight of hornworm larvae (5 mM in diet) | Total No. of Adults (5 mM in diet) | feeding time required to attain reduced maximum weight (5 mM in diet) | larval mortality (5 mM in diet) | percent adult emergence (5 mM in diet) | percent pupation (5 mM in diet) | wrinkled or crumpled wings of moths (5 mM in diet) | mean number of eggs (5 mM in diet) | effects on tobacco hornworm development (summary of Tables I and II) | pupal mortality (5 mM in diet) | pupal mortality (summary of Tables I and II)
1 | Clc1ccc(C2CN2c2ccc(Br)cc2)cc1 (stereo not shown) [Compound 9] | 86 | 15 | 93 | 5.0 ± .0 days | 6.46 ± .23 g | 74 ± 14 | 7 | 30-50% | 13 |  |  |  |  |  |  |  |  | 
2 | CCc1ccc(N2CC2c2ccccc2Cl)cc1 (stereo not shown) [Compound 16] | 80 | 20 | 87 | 5.5 ± .2 days | 7.48 ± .31 g | 44 | 4 |  | 12 |  |  |  |  |  |  |  |  | 
3 | Clc1cccc(C2CN2c2ccc(Br)cc2)c1 (stereo not shown) [Compound 8] | 53 | 50 | 60 | 7.8 ± .6 days | 4.84 ± .19 g | 1 ± 0 | 4 | 30-50% | 8 | extended the feeding time | significant larval mortality | significantly lower than controls | a reduction in percent pupation | observed in significant numbers of moths | significantly reduced the mean number of eggs | reduction in maximum larval weight, percent pupation, and mean number of eggs, and an increase in malformed adults |  | 
4 | Clc1ccccc1C1CN1c1ccccc1 (stereo not shown) [Compound 5] | 40 | 17 | 40 | 7.3 ± 1.4 days | 5.42 ± .42 g | 14 ± 17 | 3 | 30-50% | 6 | extended the feeding time | significant larval mortality | significantly lower than controls | a reduction in percent pupation |  | significantly reduced the mean number of eggs | reduction in maximum larval weight, percent pupation, and mean number of eggs, and an increase in malformed adults |  | 
5 | O=[N+]([O-])c1cccc(C2CN2c2ccccc2)c1 (stereo not shown) [Compound 4] | 100 | 7 | 100 | 5.1 ± .1 days | 9.01 ± .17 g | 67 ± 16 | 9 |  | 15 |  |  |  |  |  |  | had no effect |  | 
6 | O=[N+]([O-])c1ccccc1C1CN1c1ccc(Cl)c(Cl)c1 (stereo not shown) [Compound 2] | 47 | 71 | 93 | 6.2 ± .1 days | 8.58 ± .31 g | 83 ± 29 | 5 |  | 7 |  |  |  |  | observed in significant numbers of moths |  |  | significant pupal mortality | caused pupal mortality
7 | Brc1ccc(N2CC2c2ccccc2)cc1 (stereo not shown) [Compound 6] | 47 | 27 | 53 | 9.2 ± .5 days | 4.83 ± .42 g | 7 ± 5 | 5 | 30-50% | 7 | extended the feeding time | significant larval mortality | significantly lower than controls | a reduction in percent pupation | observed in significant numbers of moths | significantly reduced the mean number of eggs | reduction in maximum larval weight, percent pupation, and mean number of eggs, and an increase in malformed adults |  | 
8 | Clc1cccc(N2CC2c2ccccc2Cl)c1 (stereo not shown) [Compound 12] | 47 | 57 | 60 | 7.6 ± .8 days | 5.96 ± .40 g | 8 ± 11 | 2 | 30-50% | 7 | extended the feeding time | significant larval mortality | significantly lower than controls | a reduction in percent pupation | observed in significant numbers of moths | significantly reduced the mean number of eggs | reduction in maximum larval weight, percent pupation, and mean number of eggs, and an increase in malformed adults |  | 
9 | c1ccc(C2CN2c2ccccc2)cc1 (stereo not shown) [Compound 7, 1,2-diphenylaziridine] | 80 | 0 | 100 | 6.7 ± .2 days | 9.29 ± .17 g | 79 ± 19 | 10 |  | 12 |  |  |  |  |  |  | had no effect |  | 
